Data: patent US20200316067A1, “COMBINATION OF RAF INHIBITORS AND TAXANES” (DOT Therapeutics-1, Inc., priority 2014, published 2020)

Assays:
[1] = test system: N-Ras mutated SK-MEL-2 human melanoma xenograft; assay: In vivo tumor efficacy, N-Ras mutated SK-MEL-2 human melanoma xenograft model; parameters: species or system Mouse (Mus musculus) Athymic NCr-nu/nu; conditions: Day 20
[2] = Body weight loss in the SK-MEL-2 xenograft study; format: in vivo, Mouse (Mus musculus) Athymic NCr-nu/nu
Protocol: Tumor size and body weight were measured BIW beginning on the first day of treatment. Animals were terminated when their tumor reached approximately 2000 mm^3, and the study was terminated on Day 62 post treatment initiation.

[3] = test system: melanoma tumor cells which developed resistance to vemurafenib; assay: Activity against vemurafenib-resistant melanoma tumor cells; format: cell-based
[4] = Body weight loss in the Calu-6 xenograft study; format: in vivo, Mouse (Mus musculus) Athymic Balb/c Nude
Protocol: Each animal was inoculated with 2×10^6 Calu-6 tumor cells (in 0.1 mL, 1:1 with Matrigel) at the right flank for tumor model development. Body weight and the tumor growth were monitored twice weekly. Tumor size was measured to the nearest 0.1 mm using vernier caliper and applying the formula V=W^2×L/2, where V=volume, W=width, and L=length for the tumor xenograft. Xenografts were allowed to grow until they reached an average size of approximately 220 mm^3 after 14 days.
Tumor size and body weight were measured twice weekly beginning on the day of animal grouping. The study was terminated on Day 35 post treatment initiation.

[5] = test system: tumor cells with N-Ras mutation and K-Ras mutation, B-Raf wild type genetic background; assay: Activity against tumor cells with MAPK pathway activation by upstream signaling; format: cell-based
[6] = test system: Calu-6 lung cancer model (KRAS Q61K); assay: In vivo tumor efficacy, KRAS mutated Calu-6 human lung carcinoma model; parameters: species or system Mouse (Mus musculus) Athymic Balb/c Nude; conditions: for TGI: Day 21
[7] = Compound A 12.5 mg/kg PO QD Days 1-21

| SMILES | TGI ([1]; Compound A 50 mg/kg PO BIW) | Mean Maximum BWL ([2]; Compound A 12.5 mg/kg PO QD Days 0-20, Days 3 and 10) | Mean Maximum BWL ([2]; Compound A 50 mg/kg PO BIW, Day 17) | activity against tumor cells [3] | Mean Maximum % BWL ([4]; Compound A 12.5 mg/kg PO QD, Day 0 to Day 21) | Mean Maximum % BWL ([4]; Compound A 50 mg/kg PO BIW, Day 7) | activity against tumor cells [5] | ΔAUC [6, 7] | TGI [6, 7] | ΔAUC ([6]; Compound A 50 mg/kg PO BIW) | TGI ([6]; Compound A 50 mg/kg PO BIW) | TGI ([1]; docetaxel 7.5 mg/kg IV QW) | Mean Maximum BWL ([2]; docetaxel 7.5 mg/kg IV QW, Day 14) | Mean Maximum % BWL ([4]; docetaxel 5 mg/kg IV QW, Day 0 to Day 21) | Mean Maximum % BWL ([4]; docetaxel 7.5 mg/kg IV QW, Day 21) | ΔAUC ([6]; docetaxel 5 mg/kg IV QW) | TGI ([6]; docetaxel 5 mg/kg IV QW) | ΔAUC ([6]; docetaxel 7.5 mg/kg IV QW) | TGI ([6]; docetaxel 7.5 mg/kg IV QW) |
| --- | --- | --- | --- | --- | --- | --- | --- | --- | --- | --- | --- | --- | --- | --- | --- | --- | --- | --- | --- |
| C[C@@H](NC(=O)c1ncnc(N)c1Cl)c1ncc(C(=O)Nc2cc(C(F)(F)F)c(Cl)cn2)s1 [Compound A, (R)-2-(1-(6-amino-5-chloropyrimidine-4-carboxamide)ethyl)-N-(5-chloro-4-(trifluoromethyl)pyridin-2-yl)thiazole-5-carboxamide] | 62.9% | 1% (Days 3 | 4% (Day 17) | active | 0% | −0.1% (Day 7) | active | 55.4 | 58.9% | 62.7 | 59.4% | – | – | – | – | – | – | – | – |
| CC(=O)O[C@@]12CO[C@@H]1C[C@H](O)[C@@]1(C)C(=O)[C@H](O)C3=C(C)[C@@H](OC(=O)[C@H](O)[C@@H](NC(=O)OC(C)(C)C)c4ccccc4)C[C@@](O)([C@@H](OC(=O)c4ccccc4)[C@H]21)C3(C)C [docetaxel, reference compound] | – | – | – | – | – | – | – | – | – | – | – | 74.9% | 15% (Day 14) | 0% | 2.5% (Day 21) | 9.0 | 5.2% | 18.4 | 17.7% |
